From patent US12673070B2, “Treatment of sepsis and hypercytokinemia” (TX MEDIC AB, priority 2020, dated 2026)
“Also recorded” adds a separate entry of the source.

Assays:
[1] = monoclonal antibodies neutralizing TNFα; cited from earlier work
[2] = tested on: human purified monocytes; test: Stimulated IL-6 release from human purified monocytes (ELISA), Example 2; assay type: cell-based; details: 24 hours, LMW-DS 60-600 μg/ml, heparin 2.0-20 μg/ml, dexamethasone 3.0 μM, n=10 donors; for LPS-stimulated IL-6 release into the cell culture supernatant: LPS (0.01 ng/ml); for peptidoglycan-stimulated IL-6 release into the cell culture supernatant: peptidoglycan (30 ng/ml)
Protocol: Peripheral blood mononuclear cells (PBMC) were isolated from healthy donors through Ficoll-Paque PLUS (GE Healthcare; 11778538) density centrifugation. Monocytes were purified using the EasySep™ human monocyte enrichment kit (StemCell) that purifies monocytes ‘untouched’ to maintain their phenotype.
Monocytes were cultured in the absence (unstimulated PBS vehicle controls) or presence of stimulation (LPS or peptidoglycan) in the absence (vehicle) or presence of LMW-DS (ILB®, Tikomed AB, Viken, Sweden, WO 2016/076780; three concentrations: 600 μg/ml, 200 μg/ml and 60 μg/ml), heparin (2.0, 6.0 or 20 μg/ml; equivalent to 0.406, 1.218 and 4.06 units/ml; Sigma Aldrich) or dexamethasone (3.0 μM; Sigma Aldrich) for 24 hours at 37° C., 5% CO2. Following centrifugation, cell culture supernatants were removed and stored at −20° C. awaiting analysis for IL-6 by ELISA. Levels of IL-6 were quantified in the supernatant by ELISA (R&D systems) according to manufacturer's instructions.

[3] = tested on: human PBMCs; test: Cytokine secretion from stimulated human PBMCs (5-plex Luminex), Example 3; assay type: cell-based; details: 24 hours; for stimulated secretion of IL-1β / stimulated secretion of IL-8 / stimulated secretion of TNFα: highest concentration of LMW-DS
Protocol: Example 1 investigated the ability of LMW-DS to modify the secretion of IL-6 from human PBMCs arising from the use of various stimuli. The present study performed a broader analysis of the cell culture supernatants arising from Example 1. Thus, peripheral blood mononuclear cells (PBMC) were isolated from healthy donors through Ficoll-Paque PLUS density centrifugation. The PBMC were cultured at 2×10^5 cells/well in the absence (unstimulated PBS vehicle controls) or presence of stimulation (LPS, peptidoglycan, pokeweed mitogen, PHA-L, CpG+IL-15, or Cytostim) in the absence (vehicle) or presence of LMW-DS (ILB®, Tikomed AB, Viken, Sweden, WO 2016/076780; three concentrations; 600 μg/ml, 200 μg/ml and 60 μg/ml) for 24 hours at 37° C., 5% CO2.
Accordingly, the treatments were as follows for each PBMC donor: • i. Vehicle • ii. Simulation • iii. Stimulation+LMW-DS (60 μg/ml) • iv. Stimulation+LMW-DS (200 μg/ml) • v. Stimulation+LMW-DS (600 μg/ml)
with each assessed in triplicate such that the total numbers of samples were: • 1. LPS; 165 samples (from 11 donors) • 2. Peptidoglycan from Bacillus subtilis; 90 samples (from 6 donors) • 3. PHA-L; 90 samples (from 6 donors) • 4. 0.2 μM CpG+IL-15; 90 samples (from 6 donors) • 5. 1.0 μM CpG+IL-15; 90 samples (from 6 donors) • 6. Pokeweed mitogen; 90 samples (from 6 donors) • 7. 10 μl/ml Cytostim; 90 samples (from 6 donors) • 8. 30 μl/ml Cytostim; 90 samples (from 6 donors) • Total number of supernatant samples from all stimulations (all cell types)=795
Following treatment, cell culture supernatants were removed, centrifuged and stored at −20° C. before thawing for multiplex analysis of various cytokines using the 5-plex human magnetic Luminex assay from R&D systems (Cat. No. LXSAHM-05). Luminex analysis was carried out exactly following manufacturer's protocols.

[4] = tested on: IL-6; test: Serum IL-6 in MND/ALS patients treated with LMW-DS (Luminex), Example 4; assay type: in vivo, human; details: 8 ALS patients; weekly 1.0 mg/kg s.c.; measured at 10 weeks of treatment
From the text: Serum samples were taken from Motor Neuron Disease (MND)/Amyotrophic Lateral Sclerosis (ALS) patients in a clinical trial (EudraCT Number: 2018-000668-28) prior to and 5, 10 and 24 weeks following treatment with LMW-DS (ILB®, Tikomed AB, Viken, Sweden, WO 2016/076780). Frozen serum samples were thawed and quantified for IL-6 using the Luminex assay system (Bio-Plex 200 system with Bio-Plex Manager software) according to manufacturer's instructions. After an initial screening visit, patients had weekly dosing of a single LMW-DS (ILB®, Tikomed AB, Viken, Sweden, WO 2016/076780) injection of 1.0 mg/kg body weight in saline into the subcutaneous fat of the lower abdomen with a maximum of 1.5 mL at each injection site.
Statistical analysis was performed using the non-parametric Mann-Whitney U test with p<0.05 considered significant.

[5] = tested on: human peripheral blood mononuclear cells (PBMCs); test: Stimulated release of IL-6 from human PBMCs in vitro (ELISA), Example 1; assay type: cell-based; details: 24 hours
Protocol: PBMCs were isolated from healthy donors through Ficoll-Paque PLUS (GE Healthcare; 11778538) density centrifugation. PBMC were cultured at 2×10^5 cells/well in the absence (unstimulated phosphate-buffered saline (PBS) vehicle controls) or presence of stimulation (lipopolysaccharide (LPS), peptidoglycan, pokeweed mitogen, phytohemagglutinin-L (PHA-L), CpG+IL-15, or Cytostim) in the absence (vehicle) or presence of LMW-DS (ILB®, Tikomed AB, Viken, Sweden, WO 2016/076780) at three concentrations; 60 μg/ml, 200 μg/ml and 600 μg/ml for 24 hours at 37° C., 5% CO2. Following centrifugation, cell culture supernatants were removed and stored at −20° C. awaiting analysis for IL-6 by ELISA. Levels of IL-6 were quantified in the supernatant by ELISA (R&D systems; DY206) according to manufacturer's instructions.

[6] = Cytostim stimulated PBMC, listed as Dextran sulfate
[7] = LPS (0.01 ng/ml) stimulated PBMC, 60, 200, 600 μg/ml
[8] = LPS (0.01 ng/ml) stimulated PBMC, 60, 200, 600 μg/ml, listed as Dextran sulfate
[9] = LPS (0.01 ng/ml) stimulated PBMC
[10] = LPS (0.01 ng/ml) stimulated PBMC, listed as Dextran sulfate
[11] = PHA-L (1.0 μg/ml) stimulated PBMC, 60, 200, 600 μg/ml
[12] = PHA-L (1.0 μg/ml) stimulated PBMC
[13] = PHA-L (1.0 μg/ml) stimulated PBMC, listed as Dextran sulfate
[14] = peptidoglycan (30 ng/ml) stimulated PBMC
[15] = pokeweed mitogen (1.0 μg/ml) stimulated PBMC, 60, 200, 600 μg/ml
[16] = pokeweed mitogen (1.0 μg/ml) stimulated PBMC, 60, 200, 600 μg/ml, listed as dextran sulfate
[17] = pokeweed mitogen (1.0 μg/ml) stimulated PBMC

adalimumab
half-life [1]: around 14 days

certolizumab
half-life [1]: around 14 days

heparin [reference compound]
LPS-stimulated IL-6 release into the cell culture supernatant [2]: concentration dependent statistically significant enhancement; also recorded: did not significantly suppress IL-6 levels in LPS activated monocytes but rather increased the levels | peptidoglycan-stimulated IL-6 release into the cell culture supernatant [2]: enhancement was mirrored to some extent by heparin although the trend did not reach statistical significance

infliximab
half-life [1]: around 14 days

low molecular weight dextran sulfate [LMW-DS]
secretion of IL-8 ([3]; CpG+IL-15 stimulated PBMC): little impact | IL-10 secretion ([3]; Cytostim stimulated PBMC, 60, 200, 600 μg/ml): concentration dependent large reduction | IL-10 secretion ([3]; Cytostim stimulated PBMC, 60, 200, 600 μg/ml, listed as Dextran sulfate): reduction | secretion of IFNγ ([3]; Cytostim stimulated PBMC): small reductions | secretion of IL-1β ([3]; Cytostim stimulated PBMC): small reductions | secretion of IL-8 ([3]; Cytostim stimulated PBMC): small reductions | secretion of TNFα ([3]; Cytostim stimulated PBMC): small reductions | secretion of IFNγ [3, 6]: reduction | secretion of IL-8 [3, 6]: reduction | secretion of TNFα [3, 6]: reduction | secretion of IFNγ [3, 7]: concentration dependent but small reduction | secretion of IL-10 [3, 7]: concentration dependent but small reduction | secretion of IFNγ [3, 8]: reduction | secretion of IL-10 [3, 8]: reduction | stimulated secretion of IL-1β [3, 9]: modest reduction | stimulated secretion of IL-8 [3, 9]: modest reduction | stimulated secretion of TNFα [3, 9]: modest reduction | stimulated secretion of IL-1β [3, 10]: reduction | stimulated secretion of IL-8 [3, 10]: reduction | stimulated secretion of TNFα [3, 10]: reduction | IL-10 secretion [3, 11]: large, concentration dependent decrease | IL-10 secretion ([3]; PHA-L (1.0 μg/ml) stimulated PBMC, 60, 200, 600 μg/ml, listed as Dextran sulfate): reduction | stimulated release of IFNγ [3, 12]: small decreases | stimulated release of IL-8 [3, 12]: small decreases | stimulated release of TNFα [3, 12]: small decreases | stimulated release of IFNγ [3, 13]: reduction | stimulated release of TNFα [3, 13]: reduction | IL-1β secretion [3, 14]: associated increases | TNFα secretion [3, 14]: associated increases | cytokine release (IL-8) ([3]; peptidoglycan (30 ng/ml) stimulated PBMC, up to highest concentration tested): little evidence of LMW-DS, even at the highest concentration tested, of causing a general reduction in cytokine release | IL-10 secretion [3, 15]: concentration-dependent decrease | IL-10 secretion [3, 16]: reduction | secretion of IFNγ [3, 17]: not impacted generally | secretion of IL-1β [3, 17]: not impacted generally | secretion of IL-8 [3, 17]: not impacted generally | secretion of TNFα [3, 17]: not impacted generally | serum IL-6 levels as % of Pre-LMW-DS levels [4]: statistically significant decrease | LPS-stimulated IL-6 release into the cell culture supernatant [2]: concentration dependent statistically significant inhibition | LPS-stimulated IL-6 release into the cell culture supernatant ([2]; listed as Dextran sulfate): concentration dependent reduction | peptidoglycan-stimulated IL-6 release into the cell culture supernatant [2]: concentration dependent statistically significant increase | IL-6 release ([5]; CpG (0.2 μM)+IL-15 (15 ng/ml) stimulated PBMC): not generally impacted | IL-6 release ([5]; Cytostim (10 μl/ml) stimulated PBMC): not generally impacted | IL-6 release into the cell culture supernatant [5, 7]: concentration dependent and statistically significant reduction | IL-6 release into the cell culture supernatant [5, 8]: concentration dependent reduction | IL-6 release into the cell culture supernatant ([5]; LPS (0.01 ng/ml) stimulated PBMC, 60, 200, 600 μg/ml, listed as dextran sulfate): suppress IL-6 cytokine production | IL-6 release [5, 11]: inhibited significantly in a concentration-dependent manner | IL-6 release ([5]; higher concentration CpG (1.0 μM)+IL-15 (15 ng/ml) stimulated PBMC): no general impact | IL-6 release ([5]; higher concentration CpG (1.0 μM)+IL-15 (15 ng/ml) stimulated PBMC, listed as dextran sulfate): not significantly affecting | IL-6 release ([5]; higher concentration Cytostim (30 μl/ml) stimulated PBMC): no general impact | IL-6 release ([5]; higher concentration Cytostim (30 μl/ml) stimulated PBMC, listed as dextran sulfate): not significantly affecting | IL-6 release into the cell culture supernatant ([5]; peptidoglycan (30 ng/ml) stimulated PBMC, 60, 200, 600 μg/ml): little evidence of LMW-DS, even at the highest concentration tested, of causing a general reduction in IL-6 release | IL-6 release into the cell culture supernatant ([5]; peptidoglycan (30 ng/ml) stimulated PBMC, 60, 200, 600 μg/ml, listed as dextran sulfate): not significantly affecting | IL-6 release [5, 15]: not impacted generally | IL-6 release [5, 16]: not significantly affecting
